One series concerns APP/PS1 mice. Description: Contextual and cued fear conditioning in APP/PS1 mice (TSA). Format: in vivo. The procedure: Following experiments on acute effect of TSA in synaptic dysfunction, we determined if TSA is beneficial against impairment of contextual FC in APP/PS1 mice[A17]. 4 month-old mice were divided into 4 groups: APP/PS1 with TSA, APP/PS1 with vehicle, WT with TSA and WT with vehicle. TSA and vehicle control solution were administered i.p. at a concentration of 2 μg/g body weight. We found a similar shock threshold among the various groups of mice. Then, mice were trained to associate neutral stimuli with an aversive one. They were placed in a novel context (FC box), exposed to a white noise cue paired with a mild foot shock, and injected with TSA 2 hrs before training Fear learning was assessed 24 hrs later by measuring freezing behavior—the absence of all movement except for that necessitated by breathing—in response to representation of the context. We found no difference in the freezing behavior among the 4 groups of mice during the training phase of the FC. 24 hrs later, freezing behavior was decreased in vehicle-treated APP/PS1 mice compared to vehicle-treated WT littermates in analyzing contextual learning (FIG. 18).
HDAC inhibition rescues the defect in associative memory in APP/PS1 mice. Similar to humans affected by AD [B51] […] (herein incorporated by reference in its entirety). In rodents, associative learning can be assessed by contextual fear conditioning. This behavioral task, which is based on the association of a neutral stimulus with an aversive one, is dependent on hippocampal function [B52] (herein incorporated by reference in its entirety). Thus, following experiments on acute effect of TSA in synaptic dysfunction, we determined if TSA is beneficial against impairment of contextual fear conditioning in 3-4 month old APP/PS1 mice [B14] (herein incorporated by reference in its entirety). Animals were divided into 4 groups: APP/PS1 with TSA, APP/PS1 with vehicle, WT with TSA and WT with vehicle. TSA and vehicle control solution were administered i.p. at a concentration of 2 mg/Kg body weight. We found a similar shock threshold among the various groups of mice. Then, mice were trained to associate neutral stimuli with an aversive one. They were placed in a novel context (fear conditioning box), exposed to a white noise cue paired with a mild foot shock, and injected with TSA 2 hrs before training. Fear learning was assessed 24 hrs later by measuring freezing behavior—the absence of all movement except for that necessitated by breathing—in response to representation of the context. We found no difference in the freezing behavior among the 4 groups of mice during the training phase of the fear conditioning (F3,47=0.02997, p=0.9929, n=12-13/group; FIG. 18). Twenty-four hours later, we found a decreased freezing behavior in vehicle-treated APP/PS1 mice compared to vehicle-treated WT littermates in the analysis of the contextual learning (F3,47=[…], p=0.0280, n=12-13/group; FIG. 18).
Freezing in vehicle-treated APP/PS1 mice was about 46% that of vehicle-treated WT mice [vehicle-treated APP/PS1 mice: 14.88±2.97% vs. vehicle-treated WT littermates: 31.68±5.32%; n=13 (11 females plus 2 males) and n=13 (11 females plus 2 males), respectively; t=2.76, p=0.0109; FIG. 18]. […] We next tested cued fear conditioning, a hippocampus-independent task [B46] […] (herein incorporated by reference in its entirety).

The next series concerns the target T1, p300 (Homo sapiens, UniProt Q09472).
T1 construct: we will use the catalytic domain of human CBP, PCAF, p300 and GCNS (Enzo Life Sci., USA); purchased Enzo Life Sci
Description: In vitro HAT activation assay, p300. It counts as biochemical. The note with it: in vitro assays; FIG. 72. From the text:
Compounds will be tested for HAT activator activity first, using the HAT Assay kit from Active Motif (USA, CA). For this assay, we will use the catalytic domain of human CBP, PCAF, p300 and GCNS (Enzo Life Sci., USA). The catalytic domains for the remaining HATs will be produced using New England Biolabs K. lactis Protein Expression Kit. […] When assayed against all other HATs, they must show at least a 50 fold greater potency towards CBP and/or PCAF.

A short description of series [1]: Kinetics of YF2 in tail blood. It counts as in vivo, mice. The note with it: 20 mg/kg i.p. As to the method:
To this purpose, we administered the compound (20 mg/kg. i.p.) and then sampled blood from tails at different time points.

A further series deals with Aβ42-treated slices. Description: LTP in Aβ42-treated hippocampal slices (YF2). The note with it: 200 nM Aβ42-treated slices; YF2 1 μM for 30 min prior to the θ-burst. As to the method:
Next, we checked if YF2 could attenuate synaptic and cognitive dysfunction after Aβ elevation. […] Next, we induced LTP or contextual fear memory as well as reference memory in the presence of oligomeric Aβ42, or vehicle. In the LTP experiments 200 nM Aβ42 or vehicle were perfused through the bath solution for 20 min prior to the application of the θ-burst. In the behavioral experiments 200 nM Aβ42 (in a final volume of 1 μl over 1 min) or vehicle were bilaterally infused 15 min prior to the foot shock or 15 min prior to the 1st trial (for the 1st group of tests in a 2-day radial arm water maze (RAWM) test assessing reference memory^[P34] (herein incorporated by reference in its entirety)) and 15 min prior to the 7th trial (for the 2nd group of tests of the RAWM) into dorsal hippocampus of the animal that had been pre-implanted with a cannula the week before. Aβ reduced LTP and both reference and contextual fear memory (FIG. 66).

In another series the test system is YAC128 mice. Description: Accelerating rotarod in YAC128 Huntington's Disease mice. The note with it: YF2 5 mg/kg from age 2 months. It counts as in vivo. As to the method:
Animals: Mouse models of Huntington's Disease (YAC128) versus wildtype (WT) littermates.
Accelerating Rotarod: This assay is a common assay used to monitor motor coordination in mouse models of Huntington's disease (HD). After a training period to acclimatize the mice to the apparatus, mice are placed on a rod rotating at 5 rpm. Over the test period of 300 sec, the rod increases its rotational speed from 5 rpm to 40 rpm. The time at which the mouse falls off of the rod is recorded. Each mouse is subject to 3 runs per day (shown as a per day average) across 3 days (d1, d2, d3). Typically 8 to 12 mice per group are used in this assay. Both male and female data are shown for age 4 months (FIG. 83A) and 6 months (FIG. 83B).
For orientation: In the rotarod test animals must keep their balance on a rotating rod.

“Also recorded” adds a separate entry of the source.

T1 sequence (Q09472 1287-1663 limits assumed): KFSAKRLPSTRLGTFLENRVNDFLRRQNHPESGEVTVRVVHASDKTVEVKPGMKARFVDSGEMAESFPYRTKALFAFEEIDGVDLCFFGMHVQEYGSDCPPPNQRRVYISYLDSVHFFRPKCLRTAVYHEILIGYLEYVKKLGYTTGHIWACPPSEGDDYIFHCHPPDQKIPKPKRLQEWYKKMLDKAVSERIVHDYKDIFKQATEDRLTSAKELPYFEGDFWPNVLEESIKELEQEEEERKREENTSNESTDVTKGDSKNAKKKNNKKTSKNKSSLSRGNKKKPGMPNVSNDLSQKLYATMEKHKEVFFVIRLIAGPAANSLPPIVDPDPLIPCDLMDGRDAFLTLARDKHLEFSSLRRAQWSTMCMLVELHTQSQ

For the molecule `CC(/C=C/C(=O)NO)=C\[C@@H](C)C(=O)c1ccc(N(C)C)cc1` [TSA, trichostatin A], the “contextual fear memory deficit in APP/PS1 mice” value in the series with APP/PS1 mice (TSA i.p. 2 hrs before training) is listed as “improved memory; also recorded: ameliorates”. In the series with APP/PS1 mice (TSA-treated APP/PS1 mice, 2 mg/Kg i.p.), the “freezing time relative to vehicle-treated APP/PS1 mice” value was “about 236.27%”. Also, the “freezing, contextual fear conditioning 24 hrs after training” value in the series on APP/PS1 mice (TSA-treated APP/PS1 mice, 2 mg/Kg i.p. 2 hrs before training) is 35.15±6.99%; with APP/PS1 mice (TSA-treated WT mice, 2 mg/Kg i.p.) it was 36.95±6.43%. The “cued fear conditioning, freezing among the 4 groups” value in the series on APP/PS1 mice (pre-CS and CS) is on record as “did not find a difference”.
Consider `CCOc1cccc(OCCN(C)C)c1C(=O)Nc1ccc(Cl)c(C(F)(F)F)c1` [YF2], for which the “effect on p300 activity” value at p300 is reported as “did not interfere; also recorded: increases p300 activity”. For the same molecule, the “time of peak in blood post-injection” value in series [1] was “around 30 minutes”. In the series on Aβ42-treated slices, the LTP deficit result is “ameliorated; also recorded: rescues”. The “rotarod performance deficit of YAC128 vs WT mice” value with YAC128 mice (female mice, 6 months of age) was “significance is lost”; in the series on YAC128 mice (male mice, 4 months of age), “significance is lost”.

The values above are taken from patent US10640457B2, “Histone acetyltransferase activators and uses thereof” (The Trustees of Columbia University in the City of New York, priority 2009, dated 2020).
